The target in assay [1] is T1, PDE4B: The catalytic domain of human PDE4B from S152-S528 (Homo sapiens, UniProt Q07343).
T1 construct: His6 (N); thrombin cleavage site (N); made in house; host or cells: E. coli
As to the kind of experiment: PDE4 IC50 determination by Scintillation Proximity Assay, PDE4B. In kind it is biochemical. An outline of the steps: (§1)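 Enzyme was added to compound and [^3H]cAMP, then incubated 30 min at 30° (PDE4B 80 ng/ml; PDE4D 4 ng/ml). Product [^3H]AMP bound to SPA beads and was counted. IC50 was fitted by non-linear regression against DMSO and roflumilast controls.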

For another assay, the target named is T2, PDE4D (Homo sapiens, UniProt Q08499).
T2 construct: PDE4D: The catalytic domain of human PDE4B from S3 16-V692; His6 (N); thrombin cleavage site (N); made in house; host or cells: E. coli
As to the kind of experiment: PDE4 IC50 determination by Scintillation Proximity Assay, PDE4D. In kind it is biochemical. The method in brief: as §1

Setting [2] is: second part of Table 2B (2-23 to 2-103), column 3, column is PDE4B in first part, read-out: IC 50 vs. indicated assay h TNFα.
Where [3] appears, read: second part of Table 2B (2-23 to 2-103), column 5, column is PDE4D in first part, read-out: IC 50 vs. indicated assay h TNFα.
Where [4] appears, read: Table 1B, Formula I compounds, read-out: IC50 PDE4B.
[5] abbreviates: Table 1B, Formula I compounds, read-out: IC50 PDE4D.
Where [6] appears, read: Table 3A, Formula III compounds, read-out: IC50 PDE4B.
Setting [7] is: Table 3A, Formula III compounds, read-out: IC50 PDE4D.

Our source for the IC50 values is patent US7585859B2, “PDE4B inhibitors and uses therefor” (Plexxikon, Inc., priority 2004, dated 2009).

Where two headings read alike, the source gives them in different places.

T1 sequence (Q07343 with tags, fused parts or gaps): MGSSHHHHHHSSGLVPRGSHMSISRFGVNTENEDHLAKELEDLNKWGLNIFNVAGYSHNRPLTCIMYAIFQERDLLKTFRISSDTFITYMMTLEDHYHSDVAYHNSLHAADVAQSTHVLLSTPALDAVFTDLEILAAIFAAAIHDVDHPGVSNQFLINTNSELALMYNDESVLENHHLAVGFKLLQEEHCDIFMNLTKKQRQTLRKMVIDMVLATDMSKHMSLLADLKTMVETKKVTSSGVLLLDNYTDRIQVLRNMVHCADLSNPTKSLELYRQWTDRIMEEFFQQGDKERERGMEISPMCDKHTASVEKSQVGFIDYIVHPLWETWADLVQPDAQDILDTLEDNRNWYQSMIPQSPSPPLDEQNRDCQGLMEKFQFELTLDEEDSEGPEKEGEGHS
T2 sequence (Q08499 380-756): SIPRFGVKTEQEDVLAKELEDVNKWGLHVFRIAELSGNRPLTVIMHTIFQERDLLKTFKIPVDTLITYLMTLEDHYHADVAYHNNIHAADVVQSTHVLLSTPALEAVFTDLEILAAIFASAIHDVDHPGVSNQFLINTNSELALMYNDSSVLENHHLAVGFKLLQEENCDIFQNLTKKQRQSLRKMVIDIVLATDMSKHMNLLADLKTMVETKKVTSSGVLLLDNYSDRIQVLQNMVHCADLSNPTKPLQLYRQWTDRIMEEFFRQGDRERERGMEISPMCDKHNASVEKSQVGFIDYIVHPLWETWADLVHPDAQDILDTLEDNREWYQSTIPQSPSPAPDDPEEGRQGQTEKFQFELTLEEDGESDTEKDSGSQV

With `COc1ccc(C(=O)c2sc(Nc3cccnc3)nc2N)cc1` [Compound 2-72, [4-Amino-2-(pyridin-3-ylamino)-thiazol-5-yl]-(4-methoxy-phenyl)-methanone], the IC50 (in assay [1] (setting [2]); at PDE4D (setting [3])) was below 10 µM in each case.
With `N#Cc1c(NC2CCCC2)sc(C(=O)c2ccc(Cl)cc2)c1N` [Compound 1-182, 4-Amino-5-(4-chloro-benzoyl)-2-cyclopentylamino-thiophene-3-carbonitrile], the IC50 in assay [1] (setting [4]) was below 10 µM; at PDE4D (setting [5]), above 10 µM.
In the case of `Nc1nc(Nc2ccc(Cl)cc2)sc1C(=O)c1ccccc1` [Compound 2-26, [4-Amino-2-(4-chloro-phenylamino)-thiazol-5-yl]-phenyl-methanone], the IC50 (in assay [1] (setting [2]); on PDE4D (setting [3])) was below 10 µM each time.
For `N#Cc1c(Nc2cccc([N+](=O)[O-])c2)sc(C(=O)c2ccccc2)c1N` [Compound 1-170, 4-Amino-5-benzoyl-2-(3-nitro-phenylamino)-thiophene-3-carbonitrile], the IC50 (in assay [1] (setting [4]); at PDE4D (setting [5])) was below 10 µM in each case.
Turning to `Cc1onc(-c2ccccc2)c1C(=O)c1sc(Nc2ccc(C(=O)NC3CCOC3=O)cc2)c(C#N)c1N` (centres unmarked) [Compound 1-133, 4-[4-Amino-3-cyano-5-(5-methyl-3-phenyl-isoxazole-4-carbonyl)-thiophen-2-ylamino]-N-(2-oxo-tetrahydro-furan-3-yl)-benzamide], the IC50 (in assay [1] (setting [4]); on PDE4D (setting [5])) was below 10 µM in each case.
Consider `Nc1nc(Nc2ccc(Cl)cc2)sc1C(=O)C1CCCCC1` [Compound 2-91, [4-Amino-2-(4-chloro-phenylamino)-thiazol-5-yl]-cyclohexyl-methanone], for which the figures for the IC50 (in assay [1] (setting [2]); on PDE4D (setting [3])) were below 10 µM and above 10 µM, respectively.
With `N#Cc1c(NC2CCOC2=O)sc(C(=O)c2ccc(-c3ccccn3)s2)c1N` (centres unmarked) [Compound 1-79, 4-Amino-2-(2-oxo-tetrahydro-furan-3-ylamino)-5-(5-pyridin-2-yl-thiophene-2-carbonyl)-thiophene-3-carbonitrile], the IC50 (in assay [1] (setting [4]); on PDE4D (setting [5])) was below 10 µM in each case.
In the case of `COc1cc(NS(=O)(=O)c2ccc(-c3cc(C(F)(F)F)n(C)n3)s2)c2ncccc2c1` [Compound 3-21, 5-(1-Methyl-5-trifluoromethyl-1H-pyrazol-3-yl)-thiophene-2-sulfonic acid (6-methoxy-quinolin-8-yl)-amide], the IC50 (in assay [1] (setting [6]); on PDE4D (setting [7])) was above 10 µM in each case.
Turning to `COc1ccc(Nc2nc(N)c(C(=O)c3cccc(C(F)(F)F)c3)s2)cc1` [Compound 2-55, [4-Amino-2-(4-methoxy-phenylamino)-thiazol-5-yl]-(3-trifluoromethyl-phenyl)-methanone], the IC50 (in assay [1] (setting [2]); on PDE4D (setting [3])) was below 10 µM in each case.
In the case of `COc1ccc(OC)c(S(=O)(=O)Nc2cc(OC)cc3cccnc23)c1` [Compound 3-51, 2,5-Dimethoxy-N-(6-methoxy-quinolin-8-yl)-benzenesulfonamide], the IC50 (in assay [1] (setting [6]); at PDE4D (setting [7])) was above 10 µM each time.
As to `COc1ccc(Nc2sc(C(=O)c3coc4ccccc34)c(N)c2C#N)cc1` [Compound 1-105, 4-Amino-5-(benzofuran-3-carbonyl)-2-(4-methoxy-phenylamino)-thiophene-3-carbonitrile], the IC50 (in assay [1] (setting [4]); at PDE4D (setting [5])) was below 10 µM in each case.
Regarding `Nc1nc(NCc2ccccc2)sc1C(=O)c1ccccc1` [Compound 2-68, (4-Amino-2-benzylamino-thiazol-5-yl)-phenyl-methanone], the IC50 (in assay [1] (setting [2]); at PDE4D (setting [3])) was below 10 µM each time.
On to `Nc1nc(Nc2ccc(Oc3ccccc3)cc2)sc1C(=O)c1ccccc1Cl` [Compound 2-66, [4-Amino-2-(4-phenoxy-phenylamino)-thiazol-5-yl]-(2-chloro-phenyl)-methanone], for which the IC50 in assay [1] (setting [2]) is below 10 µM; at PDE4D (setting [3]) it was above 10 µM.
The like results for `Nc1nc(Nc2ccccc2)sc1C(=O)C1CCCC1` [Compound 2-89, (4-Amino-2-phenylamino-thiazol-5-yl)-cyclopentyl-methanone] were, in that order, below 10 µM and below 10 µM.
For the molecule `N#Cc1c(NCCN2CCCCC2)sc(C(=O)c2ccc(-c3ccccn3)s2)c1N` [Compound 1-70, 4-Amino-2-(2-piperidin-1-yl-ethylamino)-5-(5-pyridin-2-yl-thiophene-2-carbonyl)-thiophene-3-carbonitrile], the IC50 (in assay [1] (setting [4]); on PDE4D (setting [5])) was below 10 µM each time.
As to `CC(C)Nc1sc(C(=O)c2ccc(Cl)c(Cl)c2)c(N)c1C#N` [Compound 1-217, 4-Amino-5-(3,4-dichloro-benzoyl)-2-isopropylamino-thiophene-3-carbonitrile], the IC50 (in assay [1] (setting [4]); at PDE4D (setting [5])) was below 10 µM each time.
As for `CCOC(=O)c1cc(C(=O)c2sc(Nc3ccc(OC)cc3)nc2N)on1` [Compound 2-2, 5-[4-Amino-2-(4-methoxy-phenylamino)-thiazole-5-carbonyl]-isoxazole-3-carboxylic acid ethyl ester], the IC50 was below 10 µM in assay [1] (first part of Table 2B (2-1 to 2-22), read-out: IC 50 vs. indicated assay PDE4B) and below 10 µM at PDE4D (first part of Table 2B (2-1 to 2-22), read-out: IC 50 vs. indicated assay PDE4D).
For `Cc1ccc2cccnc2c1NS(=O)(=O)c1cccs1` [Compound 3-5, Thiophene-2-sulfonic acid (7-methyl-quinolin-8-yl)-amide], the IC50 (in assay [1] (setting [6]); at PDE4D (setting [7])) was above 10 µM in each case.
Regarding `COc1ccc(CNc2sc(C(=O)c3ccccc3Cl)c(N)c2C#N)cc1OC` [Compound 1-113, 4-Amino-5-(2-chloro-benzoyl)-2-(3,4-dimethoxy-benzylamino)-thiophene-3-carbonitrile], the IC50 (in assay [1] (setting [4]); at PDE4D (setting [5])) was below 10 µM each time.
Consider `Cc1nc(-c2ccc(S(=O)(=O)Nc3cccc4cccnc34)s2)cs1` [Compound 3-33, 5-(2-Methyl-thiazol-4-yl)-thiophene-2-sulfonic acid quinolin-8-ylamide], for which the IC50 (in assay [1] (setting [6]); at PDE4D (setting [7])) was below 10 µM each time.
Turning to `COc1cccc(C(=O)c2sc(NC3CCCC3)nc2N)c1` [Compound 2-86, (4-Amino-2-cyclopentylamino-thiazol-5-yl)-(3-methoxy-phenyl)-methanone], the IC50 (in assay [1] (setting [2]); at PDE4D (setting [3])) was below 10 µM each time.
With `CCc1ccccc1Nc1sc(C(=O)c2ccc(OC)cc2OC)c(N)c1C#N` [Compound 1-104, 4-Amino-5-(2,4-dimethoxy-benzoyl)-2-(2-ethyl-phenylamino)-thiophene-3-carbonitrile], the IC50 (in assay [1] (setting [4]); on PDE4D (setting [5])) was below 10 µM in each case.
On to `N#Cc1c(NC2CCCC2)sc(C(=O)c2cccc(Cl)c2)c1N` [Compound 1-120, 4-Amino-5-(3-chloro-benzoyl) 2-cyclopentylamino-thiophene-3-carbonitrile], for which the IC50 (in assay [1] (setting [4]); on PDE4D (setting [5])) was below 10 µM throughout.
Regarding `N#Cc1c(NCCN2CCCCC2)sc(C(=O)c2ccccc2Cl)c1N` [Compound 1-46, 4-Amino-5-(2-chloro-benzoyl)-2-(2-piperidin-1-yl-ethylamino)-thiophene-3-carbonitrile], the IC50 (in assay [1] (setting [4]); on PDE4D (setting [5])) was above 10 µM each time.
Consider `CC1C2=C(CC(C)(C)CC2=O)Nc2sc(C(N)=O)c(N)c21` (centres unmarked) [Compound 1-4, 3-Amino-4,7,7-trimethyl-5-oxo-4,5,6,7,8,9-hexahydro-thieno[2,3-b]quinoline-2-carboxylic acid amide], for which the IC50 (in assay [1] (setting [4]); at PDE4D (setting [5])) was above 10 µM throughout.
On to `Cc1ccc(C(=O)c2sc(Nc3ccc4c(c3)CCC4)c(C#N)c2N)c(C)c1` [Compound 1-157, 4-Amino-5-(2,4-dimethyl-benzoyl)-2-(indan-5-ylamino)-thiophene-3-carbonitrile], for which the IC50 (in assay [1] (setting [4]); on PDE4D (setting [5])) was below 10 µM throughout.
For `Nc1nc(Nc2ccc(Oc3ccccc3)cc2)sc1C(=O)c1cccc(Cl)c1` [Compound 2-53, [4-Amino-2-(4-phenoxy-phenylamino)-thiazol-5-yl]-(3-chloro-phenyl)-methanone], the IC50 (in assay [1] (setting [2]); on PDE4D (setting [3])) was below 10 µM each time.
For `N#Cc1c(Nc2ccc(C(=O)NC3CCOC3=O)cc2)sc(C(=O)c2cccc(Cl)c2)c1N` (centres unmarked) [Compound 1-119, 4-[4-Amino-5-(3-chloro-benzoyl)-3-cyano-thiophen-2-ylamino]-N-(2-oxo-tetrahydro-furan-3-yl)-benzamide], the IC50 (in assay [1] (setting [4]); on PDE4D (setting [5])) was below 10 µM each time.
Regarding `N#Cc1c(Nc2ccc(C(=O)NC3CCOC3=O)cc2)sc(C(=O)c2csc3ccccc23)c1N` (centres unmarked) [Compound 1-123, 4-[4-Amino-5-(benzo[b]thiophene-3-carbonyl)-3-cyano-thiophen-2-ylamino]-N-(2-oxo-tetrahydro-furan-3-yl)-benzamide], the IC50 (in assay [1] (setting [4]); on PDE4D (setting [5])) was below 10 µM each time.
For `Nc1nc(Nc2c(Cl)cccc2Cl)sc1C(=O)c1ccc(OC(F)F)cc1` [Compound 2-42, [4-Amino-2-(2,6-dichloro-phenylamino)-thiazol-5-yl]-(4-difluoromethoxy-phenyl)-methanone], the IC50 (in assay [1] (setting [2]); on PDE4D (setting [3])) was below 10 µM each time.
As to `O=S(=O)(Nc1cccc2cccnc12)c1ccc(-c2ccon2)s1` [Compound 3-23, 5-Isoxazol-3-yl-thiophene-2-sulfonic acid quinolin-8-ylamide], the IC50 (in assay [1] (setting [6]); at PDE4D (setting [7])) was above 10 µM in each case.
